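Values below derive from 48-hour exposures of cells grown in 96-well plates, with endpoints linearly interpolated between the two concentrations bracketing the appropriate inhibition level. At the TGI there is no net growth.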
Legend:
Assay in all cases: inhibition of tumour cell growth, NCI panel, 48 h
MOLT-4 leukemia = tested on: MOLT-4 leukemia
SF-295 CNS = tested on: SF-295 CNS
CAKI-1 renal = tested on: CAKI-1 renal
IGROV1 ovarian = tested on: IGROV1 ovarian
T-47D breast = tested on: T-47D breast
786-0 renal = tested on: 786-0 renal
CCRF-CEM leukemia = tested on: CCRF-CEM leukemia
SK-MEL-2 melanoma = tested on: SK-MEL-2 melanoma
HOP-92 NSCLC = tested on: HOP-92 NSCLC
NCI-H23 lung = tested on: NCI-H23 lung
NCI-H460 lung = tested on: NCI-H460 lung
UO-31 renal = tested on: UO-31 renal
NCI-H522 lung = tested on: NCI-H522 lung
RPMI-8226 leukemia = tested on: RPMI-8226 leukemia
NCI/ADR-RES ovarian = tested on: NCI/ADR-RES ovarian
SK-OV-3 ovarian = tested on: SK-OV-3 ovarian
SW-620 colon = tested on: SW-620 colon
A498 renal = tested on: A498 renal
HCT-15 colon = tested on: HCT-15 colon
UACC-257 melanoma = tested on: UACC-257 melanoma
U251 CNS = tested on: U251 CNS
SR leukemia = tested on: SR leukemia
MDA-N = tested on: MDA-N
LOX IMVI melanoma = tested on: LOX IMVI melanoma
PC-3 prostate = tested on: PC-3 prostate
HL-60(TB) leukemia = tested on: HL-60(TB) leukemia
SK-MEL-5 melanoma = tested on: SK-MEL-5 melanoma
MALME-3M melanoma = tested on: MALME-3M melanoma
OVCAR-5 ovarian = tested on: OVCAR-5 ovarian
HT29 colon = tested on: HT29 colon
MDA-MB-435 = tested on: MDA-MB-435
BT-549 breast = tested on: BT-549 breast
K-562 leukemia = tested on: K-562 leukemia
SK-MEL-28 melanoma = tested on: SK-MEL-28 melanoma
DU-145 prostate = tested on: DU-145 prostate
HS 578T breast = tested on: HS 578T breast
KM12 colon = tested on: KM12 colon
SNB-19 CNS = tested on: SNB-19 CNS
SN12C renal = tested on: SN12C renal
EKVX NSCLC = tested on: EKVX NSCLC
TK-10 renal = tested on: TK-10 renal
OVCAR-3 ovarian = tested on: OVCAR-3 ovarian
COLO 205 colon = tested on: COLO 205 colon
SF-268 CNS = tested on: SF-268 CNS
M14 melanoma = tested on: M14 melanoma
HOP-62 NSCLC = tested on: HOP-62 NSCLC
OVCAR-4 ovarian = tested on: OVCAR-4 ovarian
SF-539 CNS = tested on: SF-539 CNS
ACHN renal = tested on: ACHN renal
OVCAR-8 ovarian = tested on: OVCAR-8 ovarian
NCI-H226 lung = tested on: NCI-H226 lung
UACC-62 melanoma = tested on: UACC-62 melanoma
MDA-MB-231 breast = tested on: MDA-MB-231 breast
HCT-116 colon = tested on: HCT-116 colon
RXF 393 renal = tested on: RXF 393 renal
A549 NSCLC = tested on: A549 NSCLC
SNB-75 CNS = tested on: SNB-75 CNS
MCF7 breast = tested on: MCF7 breast
HCC-2998 colon = tested on: HCC-2998 colon

COC1=CC(=O)C(C2CC(=O)c3c(O)cc(O)cc3O2)=CC1=O (centres undefined)
TGI (MOLT-4 leukemia): 5.12 µM
TGI (SF-295 CNS): 35.1 µM
TGI (CAKI-1 renal): 33.1 µM
TGI (IGROV1 ovarian): 33.6 µM
TGI (T-47D breast): 42.7 µM
TGI (786-0 renal): 31.7 µM
TGI (CCRF-CEM leukemia): 2.42 µM
TGI (SK-MEL-2 melanoma): 34.4 µM
TGI (HOP-92 NSCLC): 17.6 µM
TGI (NCI-H23 lung): 40.5 µM
TGI (NCI-H460 lung): 51.8 µM
TGI (UO-31 renal): 32.2 µM
TGI (NCI-H522 lung): 30.8 µM
TGI (RPMI-8226 leukemia): > 100 µM
TGI (NCI/ADR-RES ovarian): 46.5 µM
TGI (SK-OV-3 ovarian): > 93.9 µM
TGI (SW-620 colon): 44.4 µM
TGI (A498 renal): > 58 µM
TGI (HCT-15 colon): 55.3 µM
TGI (UACC-257 melanoma): 34.9 µM
TGI (U251 CNS): 37.1 µM
TGI (SR leukemia): 15.6 µM
TGI (MDA-N): 29.7 µM
TGI (LOX IMVI melanoma): 30.9 µM
TGI (PC-3 prostate): 31.1 µM
TGI (HL-60(TB) leukemia): > 21.3 µM
TGI (SK-MEL-5 melanoma): 31.7 µM
TGI (MALME-3M melanoma): 34.8 µM
TGI (OVCAR-5 ovarian): 41.4 µM
TGI (HT29 colon): > 61.3 µM
TGI (MDA-MB-435): 31.6 µM
TGI (BT-549 breast): 42.9 µM
TGI (K-562 leukemia): 40.8 µM
TGI (SK-MEL-28 melanoma): 31.4 µM
TGI (DU-145 prostate): 35.3 µM
TGI (HS 578T breast): 83 µM
TGI (KM12 colon): 32.2 µM
TGI (SNB-19 CNS): 68.2 µM
TGI (SN12C renal): 37.4 µM
TGI (EKVX NSCLC): 30.8 µM
TGI (TK-10 renal): 31.8 µM
TGI (OVCAR-3 ovarian): 39.9 µM
TGI (COLO 205 colon): 32.3 µM
TGI (SF-268 CNS): 38.7 µM
TGI (M14 melanoma): 35.1 µM
TGI (HOP-62 NSCLC): 34.8 µM
TGI (OVCAR-4 ovarian): 36.5 µM
TGI (SF-539 CNS): 39.5 µM
TGI (ACHN renal): 29.7 µM
TGI (OVCAR-8 ovarian): 59.7 µM
TGI (NCI-H226 lung): 40.4 µM
TGI (UACC-62 melanoma): 31.3 µM
TGI (MDA-MB-231 breast): 29.1 µM
TGI (HCT-116 colon): 32.9 µM
TGI (RXF 393 renal): 34.8 µM
TGI (A549 NSCLC): > 72.6 µM
TGI (SNB-75 CNS): 39.7 µM
TGI (MCF7 breast): 42.3 µM
TGI (HCC-2998 colon): 32.1 µM

Source: PubChem BioAssay (NCI)
